This passage reports IC50 results from US20230295162A1 (EÖTVÖS LORÁND TUDOMÁNYEGYETEM, priority 2020, published 2023).

Usually IC50 stands for the concentration that gives 50% inhibition.

The subject of assay [1] is H2228 lung cancer cell line. Put plainly: High-throughput screening, CellTiter-Glo cell viability assay at 100 nM. Particulars: Homo sapiens, NCI-H2228, HTS, compounds at 100 nM, 72 h, read-out: cytotoxicity expressed in IC50, H2228 (results of High throughput screening). It counts as cell-based, human. The protocol:
(§1) EBC-1 (obtained from JRCB, https://cellbank.nibiohn.go.jp/english/) and H2228 (obtained from ATCC https://www.lgcstandards-atcc.org/) cell lines were maintained according to the instructions provided by JRCB and ATCC in a 5% CO2 humidified incubator maintained at 37° C. temperature. Effect of compounds on cell viability was measured via CellTiter-Glo® luminescent cell viability assay (Promega, Madison, WI, USA). Cells were plated at 1000 cells/well onto a flat-bottomed, white 96 well plate (BRANDplates, cat. no.: 781965). After 24 h, cells were treated for 72 h with the compounds at 100 nM concentration. After the treatment, medium was removed and CellTiter-Glo® reagent was added. Untreated cells were used as control. The luminescence signal was recorded using a microplate reader (BioTek Synergy 2 Multi-Mode Reader, BioTek, Winooski, VT, USA). Cell viability data (% of untreated control cells) was evaluated with Microsoft Excel.
In general terms: In ATP-based viability assays light output follows the ATP content of the culture.

Assay [2] deals with EBC-1 lung cancer cell line. The description is as above. The class given is cell-based, human. The following applies: Homo sapiens, EBC-1, HTS, compounds at 100 nM, 72 h, read-out: cytotoxicity expressed in IC50, EBC-1 (results of High throughput screening). The procedure:
as §1

As to `O=C1C2=C(CCN(Cc3cccc(F)c3)C2)N2CCN=C2N1Cc1ccc(Br)cc1` [I/4, reference compound], the IC50 in assay [1] and in assay [2] was below 100 nM throughout.

In the case of `Cc1ccccc1CN1C(=O)C2=C(CCN(Cc3ccc(F)cc3C(F)(F)F)C2)N2CCN=C12` [I/12], the IC50 in assay [1] and in assay [2] was above 100 nM throughout.

As to `Cc1ccccc1CN1C(=O)C2=C(CCN(Cc3cccc(C(F)(F)F)c3)C2)N2CCN=C12` [I/13], the IC50 in assay [1] and in assay [2] was above 100 nM throughout.

As to `Cc1ccccc1CN1C(=O)C2=C(CCN(Cc3ccc(F)c(F)c3)C2)N2CCN=C12` [I/14], the IC50 in assay [1] and in assay [2] was above 100 nM throughout.

In the case of `O=C1C2=C(CCN(Cc3cccc(C(F)(F)F)c3)C2)N2CCN=C2N1Cc1ccc(I)cc1` [I/15A], the IC50 in assay [1] and in assay [2] was above 100 nM in each case.

`Cc1ccccc1CN1C(=O)C2=C(CCN(Cc3cc(C(F)(F)F)cc(C(F)(F)F)c3)C2)N2CCN=C12` [I/15]: the IC50 in assay [1] and in assay [2] was above 100 nM throughout.

`O=C1C2=C(CCN(Cc3cc(C(F)(F)F)cc(C(F)(F)F)c3)C2)N2CCN=C2N1Cc1ccc(I)cc1` [I/16]: the IC50 in assay [1] and in assay [2] was above 100 nM in each case.

Turning to `O=C1C2=C(CCN(Cc3ccc(F)c(F)c3)C2)N2CCN=C2N1Cc1ccc(I)cc1` [I/17], the IC50 in assay [1] and in assay [2] was above 100 nM in each case.

Consider `O=C1C2=C(CCN(Cc3ccc(F)c(F)c3F)C2)N2CCN=C2N1Cc1ccc(I)cc1` [I/18], for which the IC50 in assay [1] and in assay [2] was above 100 nM throughout.

Take `O=C1C2=C(CCN(Cc3cc(F)c(F)c(F)c3)C2)N2CCN=C2N1Cc1ccc(I)cc1` [I/19]: the IC50 in assay [1] and in assay [2] was above 100 nM each time.

For `O=C1C2=C(CCN(Cc3cc(C(F)(F)F)cc(C(F)(F)F)c3)C2)N2CCN=C2N1Cc1ccc(C(F)(F)F)cc1` [I/21], the IC50 in assay [1] and in assay [2] was above 100 nM each time.

Take `O=C1C2=C(CCN(Cc3cc(C(F)(F)F)cc(C(F)(F)F)c3)C2)N2CCN=C2N1Cc1ccc(C(F)(F)F)c(F)c1` [I/22]: the IC50 in assay [1] and in assay [2] was above 100 nM throughout.

Regarding `O=C1C2=C(CCN(Cc3ccc(F)c(F)c3)C2)N2CCN=C2N1Cc1ccc(F)cc1` [I/23], the IC50 in assay [1] and in assay [2] was above 100 nM in each case.

As to `O=C1C2=C(CCN(Cc3cc(C(F)(F)F)cc(C(F)(F)F)c3)C2)N2CCN=C2N1Cc1ccc(F)cc1` [I/24], the IC50 in assay [1] and in assay [2] was above 100 nM in each case.

On to `O=C1C2=C(CCN(Cc3cc(F)c(F)c(F)c3)C2)N2CCN=C2N1Cc1ccc(F)cc1` [I/25], for which the IC50 in assay [1] and in assay [2] was above 100 nM in each case.

In the case of `O=C1C2=C(CCN(Cc3cccc(C(F)(F)F)c3)C2)N2CCN=C2N1Cc1ccc(F)cc1` [I/32], the IC50 in assay [1] and in assay [2] was above 100 nM each time.

Regarding `O=C1C2=C(CCN(Cc3cccc(C(F)(F)F)c3)C2)N2CCN=C2N1Cc1ccc(C(F)(F)F)c(F)c1` [I/33], the IC50 in assay [1] and in assay [2] was above 100 nM each time.

`O=C1C2=C(CCN(Cc3ccc(F)c(F)c3F)C2)N2CCN=C2N1Cc1ccc(F)cc1` [I/34]: the IC50 in assay [1] and in assay [2] was above 100 nM throughout.

As to `O=C1C2=C(CCN(Cc3cc(F)cc(F)c3)C2)N2CCN=C2N1Cc1ccc(I)cc1` [I/38], the IC50 in assay [1] and in assay [2] was below 100 nM in each case.

Take `O=C1C2=C(CCN(Cc3ccccc3)C2)N2CCN=C2N1Cc1ccc(Br)cc1` [I/41]: the IC50 was below 100 nM in assay [1] and above 100 nM in assay [2].

For `O=C1C2=C(CCN(Cc3cccc(F)c3)C2)N2CCN=C2N1Cc1ccc([N+](=O)[O-])cc1F` [I/49], the concentration for half-maximal inhibition (IC50) in assay [1] and in assay [2] was below 100 nM throughout.

Turning to `O=C1C2=C(CCN(Cc3cc(F)cc(F)c3)C2)N2CCN=C2N1Cc1ccc([N+](=O)[O-])cc1F` [I/50], the IC50 in assay [1] and in assay [2] was below 100 nM each time.

As for `COc1cc(CN2C(=O)C3=C(CCN(Cc4ccccc4)C3)N3CCN=C23)cc(OC)c1OC` [I/51], the IC50 in assay [1] and in assay [2] was above 100 nM throughout.

Take `O=C1C2=C(CCN(Cc3ccccc3)C2)N2CCN=C2N1Cc1cccc(I)c1` [I/56]: the IC50 in assay [1] and in assay [2] was above 100 nM in each case.

With `COc1cc(CN2C(=O)C3=C(CCN(Cc4cccc(F)c4)C3)N3CCN=C23)cc(OC)c1OC` [I/57], the IC50 in assay [1] and in assay [2] was above 100 nM throughout.

Consider `NCc1ccc(CN2C(=O)C3=C(CCN(Cc4ccccc4)C3)N3CCN=C23)cc1` [I/62], for which the IC50 in assay [1] and in assay [2] was above 100 nM each time.

With `NCc1cccc(CN2CCC3=C(C2)C(=O)N(Cc2ccc(C(F)(F)F)cc2)C2=NCCN23)c1` [I/69], the IC50 in assay [1] and in assay [2] was above 100 nM each time.

For the molecule `Cc1ccccc1CN1C(=O)C2=C(CCN(Cc3ccc(N)cc3)C2)N2CCN=C12` [I/74], the IC50 in assay [1] and in assay [2] was above 100 nM in each case.

Regarding `Nc1cccc(CN2C(=O)C3=C(CCN(Cc4cccc(F)c4)C3)N3CCN=C23)c1` [I/76], the IC50 in assay [1] and in assay [2] was above 100 nM each time.

Consider `Cc1ccccc1CN1C(=O)C2=C(CCN(Cc3cccc(N)c3)C2)N2CCN=C12` [I/77], for which the IC50 in assay [1] and in assay [2] was above 100 nM throughout.

In the case of `Nc1cccc(CN2CCC3=C(C2)C(=O)N(Cc2ccc(I)cc2)C2=NCCN23)c1` [I/78], the IC50 in assay [1] and in assay [2] was above 100 nM each time.

Turning to `Nc1cccc(CN2CCC3=C(C2)C(=O)N(Cc2ccc(C(F)(F)F)cc2)C2=NCCN23)c1` [I/79], the IC50 in assay [1] and in assay [2] was above 100 nM throughout.

With `Nc1cccc(CN2CCC3=C(C2)C(=O)N(Cc2ccc(C(F)(F)F)c(F)c2)C2=NCCN23)c1` [I/80], the IC50 in assay [1] and in assay [2] was above 100 nM throughout.

As to `Nc1ccc(CN2CCC3=C(C2)C(=O)N(Cc2ccc(C(F)(F)F)c(F)c2)C2=NCCN23)cc1` [I/82], the IC50 in assay [1] and in assay [2] was above 100 nM each time.

As for `Nc1ccc(CN2CCC3=C(C2)C(=O)N(Cc2cccc(F)c2)C2=NCCN23)cc1` [I/83], the IC50 in assay [1] and in assay [2] was above 100 nM in each case.

In the case of `Nc1ccc(CN2CCC3=C(C2)C(=O)N(Cc2ccc(N)cc2)C2=NCCN23)cc1` [I/85], the IC50 in assay [1] and in assay [2] was above 100 nM in each case.

For `Nc1ccc(CN2C(=O)C3=C(CCN(Cc4cc(F)cc(F)c4)C3)N3CCN=C23)cc1` [I/88], the IC50 in assay [1] and in assay [2] was above 100 nM throughout.

Consider `O=C1C2=C(CCN(Cc3ccccc3)C2)N2CCN=C2N1CC1CNC1` [I/90], for which the IC50 in assay [1] and in assay [2] was above 100 nM in each case.

With `Nc1ccc(CN2CCC3=C(C2)C(=O)N(CC2CNC2)C2=NCCN23)cc1` [I/91], the IC50 in assay [1] and in assay [2] was above 100 nM each time.

As to `Cc1ccccc1CN1C(=O)C2=C(CCN(CC3CNC3)C2)N2CCN=C12` [I/92], the IC50 in assay [1] and in assay [2] was above 100 nM in each case.

Turning to `Nc1ccc(CN2CCC3=C(C2)C(=O)N(CC2CCNCC2)C2=NCCN23)cc1` [I/93], the IC50 in assay [1] and in assay [2] was above 100 nM each time.

Regarding `Cc1ccccc1CN1C(=O)C2=C(CCN(CC3CCNCC3)C2)N2CCN=C12` [I/94], the IC50 in assay [1] and in assay [2] was above 100 nM in each case.

As for `O=C1C2=C(CCN(CC3CCNCC3)C2)N2CCN=C2N1Cc1ccc(F)cc1` [I/95], the IC50 in assay [1] and in assay [2] was above 100 nM throughout.

`O=C1C2=C(CCN(Cc3ccccc3)C2)N2CCN=C2N1CC1CCNCC1` [I/96]: the IC50 in assay [1] and in assay [2] was above 100 nM throughout.

Take `Cc1ccccc1CN1C(=O)C2=C(CCN(CC3CCNC3)C2)N2CCN=C12` (stereo not drawn) [I/97]: the half-inhibitory concentration (IC50) in assay [1] and in assay [2] was above 100 nM each time.

For `O=C1C2=C(CCN(CC3CCNC3)C2)N2CCN=C2N1Cc1ccc(F)cc1` (stereo not drawn) [I/98], the IC50 in assay [1] and in assay [2] was above 100 nM throughout.

For `Cc1ccccc1CN1C(=O)C2=C(CCN(CC3CCCN3)C2)N2CCN=C12` (stereo not drawn) [I/99], the IC50 in assay [1] and in assay [2] was above 100 nM in each case.

As to `O=C1C2=C(CCN(CC3CCCN3)C2)N2CCN=C2N1Cc1ccc(F)cc1` (stereo not drawn) [I/100], the IC50 in assay [1] and in assay [2] was above 100 nM each time.

`[N-]=[N+]=Nc1cccc(CN2C(=O)C3=C(CCN(Cc4ccccc4)C3)N3CCN=C23)c1` [I/102]: the IC50 in assay [1] and in assay [2] was above 100 nM each time.

As for `[N-]=[N+]=Nc1cccc(CN2C(=O)C3=C(CCN(Cc4cccc(F)c4)C3)N3CCN=C23)c1` [I/105], the IC50 in assay [1] is around 100 nM; in assay [2], below 100 nM.

On to `[N-]=[N+]=Nc1ccc(CN2C(=O)C3=C(CCN(Cc4cccc(F)c4)C3)N3CCN=C23)cc1` [I/106], for which the values for the IC50 in assay [1] and in assay [2] were above 100 nM and around 100 nM, respectively.

Regarding `[N-]=[N+]=Nc1ccc(CN2CCC3=C(C2)C(=O)N(Cc2cccc(F)c2)C2=NCCN23)cc1` [I/108], the IC50 in assay [1] and in assay [2] was above 100 nM each time.

Turning to `[N-]=[N+]=Nc1ccc(CN2CCC3=C(C2)C(=O)N(Cc2ccc(C(F)(F)F)cc2)C2=NCCN23)cc1` [I/110], the concentration for half-maximal inhibition (IC50) in assay [1] and in assay [2] was above 100 nM in each case.

Regarding `[N-]=[N+]=Nc1ccc(CN2CCC3=C(C2)C(=O)N(Cc2ccc(C(F)(F)F)c(F)c2)C2=NCCN23)cc1` [I/114], the IC50 in assay [1] and in assay [2] was above 100 nM each time.
